# Molecular target: activated ERK2 (Homo sapiens (Human), UniProt P28482)
# Assay: Activated ERK2 kinase assay (AlphaScreen, ERKtide peptide phosphorylation)
# Type: biochemical
# Settings: […] ERK2, 200 nM ERKtide peptide, 35 μM ATP, 30 min preincubation; read-out: ERK2 IC50
# Excerpt: Production of Activated ERK2 Protein:
# Activated ERK2 protein was generated in insect cells by co-expression with a constitutively active form of MEK1. The ERK2 protein was expressed and purified as a nHis-PreScission-ERK2 tagged protein and then proteolytically processed to the full-length wild-type protein. […] Double-phosphorylated ERK2 protein was purified from the mixture by mono-Q column separation.
# Activated ERK2 Kinase Assay:
# A 16-point, half-log dilution series of compounds at 41× final concentration was used for generating IC50 curves. Compound dilution series were prepared in 100% DMSO. ERK2 was preincubated with compounds for 30 minutes at ambient temperature. Reaction was initiated by addition of a substrate cocktail of ERKtide peptide and ATP and was allowed to proceed for 2-3 hours at ambient temperature. Reaction was terminated by addition of 10 μL of a 2× stop buffer consisting of 100 mM Tris-Cl [pH 7.5], 25 mM EDTA, 0.01% Tween 20, 10 μg/mL of AlphaScreen Protein A Acceptor Beads, 10 μg/mL of Streptavidin Donor Beads (PerkinElmer, Waltham, Mass.), and 1.4 μg/mL phospho-EGF Receptor (Thr669) antibody (Cat #3056, Cell Signaling Technology, Danvers, Mass.). Terminated reactions were read, after overnight incubation in the dark, on an EnVision Multilabel Plate Reader (PerkinElmer, Waltham, Mass.), with excitation and emission wavelengths set to 680 nm and 570 nm, respectively. IC50 values were determined using a four-parameter fit.
# Chain of activated ERK2 (P28482 whole entry): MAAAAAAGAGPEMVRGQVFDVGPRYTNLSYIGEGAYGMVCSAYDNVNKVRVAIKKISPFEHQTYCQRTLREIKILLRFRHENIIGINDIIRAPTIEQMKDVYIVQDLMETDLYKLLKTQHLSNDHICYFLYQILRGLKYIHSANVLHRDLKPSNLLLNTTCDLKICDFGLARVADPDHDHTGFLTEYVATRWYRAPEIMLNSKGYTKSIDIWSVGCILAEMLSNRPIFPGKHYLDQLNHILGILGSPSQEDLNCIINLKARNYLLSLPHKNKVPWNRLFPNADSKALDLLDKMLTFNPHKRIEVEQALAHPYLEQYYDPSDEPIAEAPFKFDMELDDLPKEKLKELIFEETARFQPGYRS
row,SMILES,IC50
1,"CC1(C)c2cnc(NC3CCOCC3)nc2CN1C(=O)N[C@H](CO)c1ccccc1 [compound 1, (S)-N-(2-hydroxy-1-phenylethyl)-5,5-dimethyl-2-((tetrahydro-2H-pyran-4-yl)amino)-5H-pyrrolo[3,4-d]pyrimidine-6(7H)-carboxamide]",14 nM
2,"CC1(C)c2cnc(NC3CCOCC3)nc2CN1C(=O)N[C@H](CO)c1cccc(Cl)c1 [compound 2, (S)-N-(1-(3-chlorophenyl)-2-hydroxyethyl)-5,5-dimethyl-2-((tetrahydro-2H-pyran-4-yl)amino)-5H-pyrrolo[3,4-d]pyrimidine-6(7H)-carboxamide]",4 nM
3,"CC1(C)c2cnc(NC3CCOCC3)nc2CN1C(=O)NCc1cccnc1 [compound 3, 5,5-dimethyl-N-(pyridin-3-ylmethyl)-2-((tetrahydro-2H-pyran-4-yl)amino)-5H-pyrrolo[3,4-d]pyrimidine-6(7H)-carboxamide]",894 nM
4,"CC1(C)c2cnc(NC3CCOCC3)nc2CN1C(=O)NCc1cccc(S(C)(=O)=O)c1 [compound 4, 5,5-dimethyl-N-(3-(methylsulfonyl)benzyl)-2-((tetrahydro-2H-pyran-4-yl)amino)-5H-pyrrolo[3,4-d]pyrimidine-6(7H)-carboxamide]",18 nM
5,"CC1(C)c2cnc(NC3CCOCC3)nc2CN1C(=O)N[C@H]1CCCN(Cc2ccccc2F)C1 [compound 5, (S)-N-(1-(2-fluorobenzyl)piperidin-3-yl)-5,5-dimethyl-2-((tetrahydro-2H-pyran-4-yl)amino)-5H-pyrrolo[3,4-d]pyrimidine-6(7H)-carboxamide]",15500 nM
6,"CC1(C)c2cnc(NC3CCOCC3)nc2CN1C(=O)N[C@H]1CCCNC1 [compound 6, (S)-5,5-dimethyl-N-(piperidin-3-yl)-2-((tetrahydro-2H-pyran-4-yl)amino)-5H-pyrrolo[3,4-d]pyrimidine-6(7H)-carboxamide]",2340 nM
7,"CC1(C)c2cnc(NC3CCOCC3)nc2CN1C(=O)N[C@@H]1CCCNC1 [compound 7, (R)-5,5-dimethyl-N-(piperidin-3-yl)-2-((tetrahydro-2H-pyran-4-yl)amino)-5H-pyrrolo[3,4-d]pyrimidine-6(7H)-carboxamide]",15300 nM
8,"CC1(C)c2cnc(NC3CCOCC3)nc2CN1C(=O)N[C@@H]1CCCN(Cc2ccccc2F)C1 [compound 8, (R)-N-(1-(2-fluorobenzyl)piperidin-3-yl)-5,5-dimethyl-2-((tetrahydro-2H-pyran-4-yl)amino)-5H-pyrrolo[3,4-d]pyrimidine-6(7H)-carboxamide]",82 nM
9,"CC1(C)c2cnc(NC3CCOCC3)nc2CN1C(=O)N[C@@H]1CC1c1ccccc1 (stereo partly drawn) [compound 9, 5,5-dimethyl-N-((1R)-2-phenylcyclopropyl)-2-((tetrahydro-2H-pyran-4-yl)amino)-5H-pyrrolo[3,4-d]pyrimidine-6(7H)-carboxamide]",23 nM
10,"CC1(C)c2cnc(NC3CCS(=O)(=O)CC3)nc2CN1C(=O)N[C@H](CO)c1ccccc1 [compound 10, (S)-2-((1,1-dioxidotetrahydro-2H-thiopyran-4-yl)amino)-N-(2-hydroxy-1-phenylethyl)-5,5-dimethyl-5H-pyrrolo[3,4-d]pyrimidine-6(7H)-carboxamide]",722 nM
11,"CC1(C)c2cnc(NC3CCC(F)(F)CC3)nc2CN1C(=O)N[C@H](CO)c1ccccc1 [compound 11, (S)-2-((4,4-difluorocyclohexyl)amino)-N-(2-hydroxy-1-phenylethyl)-5,5-dimethyl-5H-pyrrolo[3,4-d]pyrimidine-6(7H)-carboxamide]",146 nM
12,"CC1(C)c2cnc(NC3CCOC3)nc2CN1C(=O)N[C@H](CO)c1ccccc1 (stereo partly drawn) [compound 12, N-((S)-2-hydroxy-1-phenylethyl)-5,5-dimethyl-2-((tetrahydrofuran-3-yl)amino)-5H-pyrrolo[3,4-d]pyrimidine-6(7H)-carboxamide]",375 nM
13,"CC1(C)c2cnc(NC3CCOCC3)nc2CN1C(=O)NCc1cc(F)cc(Cl)c1 [compound 13, N-(3-chloro-5-fluorobenzyl)-5,5-dimethyl-2-((tetrahydro-2H-pyran-4-yl)amino)-5H-pyrrolo[3,4-d]pyrimidine-6(7H)-carboxamide]",8 nM
14,"CC1(C)c2cnc(NC3CCOCC3)nc2CN1C(=O)NCC1CCCCO1 (stereo not drawn) [compound 14, 5,5-dimethyl-N-((tetrahydro-2H-pyran-2-yl)methyl)-2-((tetrahydro-2H-pyran-4-yl)amino)-5H-pyrrolo[3,4-d]pyrimidine-6(7H)-carboxamide]",328 nM
15,"CC1(C)c2cnc(NC3CCOCC3)nc2CN1C(=O)NCC1CCCOC1 (stereo not drawn) [compound 15, 5,5-dimethyl-N-((tetrahydro-2H-pyran-3-yl)methyl)-2-((tetrahydro-2H-pyran-4-yl)amino)-5H-pyrrolo[3,4-d]pyrimidine-6(7H)-carboxamide]",842 nM
16,"CC1(C)c2cnc(NC3CCOCC3)nc2CN1C(=O)NCC1CCOCC1 [compound 16, 5,5-dimethyl-2-((tetrahydro-2H-pyran-4-yl)amino)-N-((tetrahydro-2H-pyran-4-yl)methyl)-5H-pyrrolo[3,4-d]pyrimidine-6(7H)-carboxamide]",362 nM
17,"CC1(C)c2cnc(NC3CCOCC3)nc2CN1C(=O)N[C@H](CO)C1CCCCC1 [compound 17, (S)-N-(1-cyclohexyl-2-hydroxyethyl)-5,5-dimethyl-2-((tetrahydro-2H-pyran-4-yl)amino)-5H-pyrrolo[3,4-d]pyrimidine-6(7H)-carboxamide]",67 nM
18,"CC1(C)c2cnc(NC3CCOCC3)nc2CN1C(=O)NC1CCOCC1 [compound 18, 5,5-dimethyl-N-(tetrahydro-2H-pyran-4-yl)-2-((tetrahydro-2H-pyran-4-yl)amino)-5H-pyrrolo[3,4-d]pyrimidine-6(7H)-carboxamide]",2390 nM
19,"CC1(C)c2cnc(NC3CCOCC3)nc2CN1C(=O)NCc1cc(F)cc(F)c1 [compound 19, N-(3,5-difluorobenzyl)-5,5-dimethyl-2-((tetrahydro-2H-pyran-4-yl)amino)-5H-pyrrolo[3,4-d]pyrimidine-6(7H)-carboxamide]",21 nM
20,"CC1(C)c2cnc(NC3CCOCC3)nc2CN1C(=O)NCc1cccc(F)c1 [compound 20, N-(3-fluorobenzyl)-5,5-dimethyl-2-((tetrahydro-2H-pyran-4-yl)amino)-5H-pyrrolo[3,4-d]pyrimidine-6(7H)-carboxamide]",16 nM
21,"CC1(C)c2cnc(NC3CCOCC3)nc2CN1C(=O)NCc1cccc(Cl)c1 [compound 21, N-(3-chlorobenzyl)-5,5-dimethyl-2-((tetrahydro-2H-pyran-4-yl)amino)-5H-pyrrolo[3,4-d]pyrimidine-6(7H)-carboxamide]",6 nM
22,"C[C@@H](NC(=O)N1Cc2nc(NC3CCOCC3)ncc2C1(C)C)c1cccc(Cl)c1 [compound 22, (R)-N-(1-(3-chlorophenyl)ethyl)-5,5-dimethyl-2-((tetrahydro-2H-pyran-4-yl)amino)-5H-pyrrolo[3,4-d]pyrimidine-6(7H)-carboxamide]",2 nM
23,"CC1(C)c2cnc(NC3CCOCC3)nc2CN1C(=O)NCc1ccc(F)cc1 [compound 24, N-(4-fluorobenzyl)-5,5-dimethyl-2-((tetrahydro-2H-pyran-4-yl)amino)-5H-pyrrolo[3,4-d]pyrimidine-6(7H)-carboxamide]",22 nM
24,"CC1(C)c2cnc(NC3CCCOC3)nc2CN1C(=O)N[C@H](CO)c1ccccc1 (stereo partly drawn) [compound 25, N-((S)-2-hydroxy-1-phenylethyl)-5,5-dimethyl-2-((tetrahydro-2H-pyran-3-yl)amino)-5H-pyrrolo[3,4-d]pyrimidine-6(7H)-carboxamide]",193 nM
25,"CC1(C)c2cnc(NC3CCOCC3)nc2CN1C(=O)NC(c1ccccc1)C(F)(F)F (stereo not drawn) [compound 26, 5,5-dimethyl-2-((tetrahydro-2H-pyran-4-yl)amino)-N-(2,2,2-trifluoro-1-phenylethyl)-5H-pyrrolo[3,4-d]pyrimidine-6(7H)-carboxamide]",125 nM
26,"CN(Cc1ccccc1)C(=O)N1Cc2nc(NC3CCOCC3)ncc2C1(C)C [compound 27, N-benzyl-N,5,5-trimethyl-2-((tetrahydro-2H-pyran-4-yl)amino)-5H-pyrrolo[3,4-d]pyrimidine-6(7H)-carboxamide]",202 nM
27,"CC1(C)c2cnc(NC3CCOCC3)nc2CN1C(=O)NCc1ccc(Cl)cc1 [compound 28, N-(4-chlorobenzyl)-5,5-dimethyl-2-((tetrahydro-2H-pyran-4-yl)amino)-5H-pyrrolo[3,4-d]pyrimidine-6(7H)-carboxamide]",10 nM
28,"CC1(C)c2cnc(NC3CCOCC3)nc2CN1C(=O)NCc1ccccc1Cl [compound 29, N-(2-chlorobenzyl)-5,5-dimethyl-2-((tetrahydro-2H-pyran-4-yl)amino)-5H-pyrrolo[3,4-d]pyrimidine-6(7H)-carboxamide]",159 nM
29,"CC1(C)c2cnc(NC3CCOCC3)nc2CN1C(=O)NCc1nc2ccccc2s1 [compound 30, N-(benzo[d]thiazol-2-ylmethyl)-5,5-dimethyl-2-((tetrahydro-2H-pyran-4-yl)amino)-5H-pyrrolo[3,4-d]pyrimidine-6(7H)-carboxamide]",49 nM

# Same assay, conditions: comparative example text; read-out: IC50 on ERK2
row,SMILES,IC50
1,"C[C@@H](NC(=O)N1Cc2cnc(NC3CCOCC3)nc2C1)c1ccccc1 [Comparative Example, reference compound]",360 nM
